Experiments:
[1] = Carotid artery FeCl3 injury arterial thrombosis model; assay type: in vivo, guinea pig; conditions: RWJ-56110 0.5 mg/kg; P1pal-7 0.13 mg/kg i.v.
Source text: To assess the efficacy on arterial thrombosis by blockade of thrombin, MMP-1, or PAR1, a standard carotid artery FeCl3 injury model was used in guinea pigs. FeCl3 causes denudation of the artery and exposure of type I collagen and other subendothelial matrix proteins. The effects of blocking thrombin with bivalirudin, MMP-1 with FN-439, and PAR1 with either the small molecule antagonist RWJ-56110 or the P1pal-7 pepducin on arterial thrombosis were then compared using a dopier probe.
For these arterial thrombosis experiments, 10 min after i.v. administration of vehicle (−), bivalirudin, RWJ-56110, P1 pal-7 or FN-439 (n=4-5) through the jugular vein at the indicated concentrations, the right carotid arteries were injured for 20 min using a 24 mm^2 piece of Bio-Rad Trans-Blot paper soaked in 20% FeCl3. Arterial flow 5 mm distal to the site of injury was measured with a 0.5 V Doppler probe (Transonic Systems). An arterial occlusion was defined as a flow rate of <0.01 V for ≧5 min. Doppler measurements were terminated at the 30 min time point following injury (* designates p<0.05).

PAR1 [2] = target: T1, PAR1 (Homo sapiens, UniProt P25116); experiment: Platelet shape change (decrease in light transmittance); assay type: cell-based; conditions: 1 μM RWJ-56110
T1 construct: able to cleave PAR1 on the surface of human platelets; endogenous in cells; host or cells: gel-filtered or washed human platelets
T1 sequence (P25116 22-425): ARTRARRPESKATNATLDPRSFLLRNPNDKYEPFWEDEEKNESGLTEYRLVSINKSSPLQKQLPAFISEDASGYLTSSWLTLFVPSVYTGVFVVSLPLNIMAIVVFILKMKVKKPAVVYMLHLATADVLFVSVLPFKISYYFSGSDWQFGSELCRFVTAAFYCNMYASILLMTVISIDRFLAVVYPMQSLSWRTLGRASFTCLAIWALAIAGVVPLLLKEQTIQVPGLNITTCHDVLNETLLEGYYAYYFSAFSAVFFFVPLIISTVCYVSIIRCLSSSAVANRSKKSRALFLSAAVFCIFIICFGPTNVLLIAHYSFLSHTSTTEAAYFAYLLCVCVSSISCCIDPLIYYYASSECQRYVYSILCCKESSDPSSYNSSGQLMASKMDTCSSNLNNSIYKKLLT
Experimental: In FIG. 3C, the ability of the […] peptide (PR-TRAP) to induce a change in platelet shape was determined. Washed human platelets were pretreated with 2 mM EGTA and then treated with the indicated agonists in the presence or absence of 1 μM RWJ-56110 while stirring at 1100 rpm. The decrease in light transmittance is an indication of the platelet shape change reaction.
In FIG. 4B, the ability of MMP-1 to induce platelet shape change was determined. Washed human platelets were pretreated with 2 mM EGTA and then challenged with MMP-1 in the presence or absence of 1 μM RWJ-56110 while stirring at 1100 rpm. Shape change was measured as described above.

PAR1 [3] = target: T1, PAR1; experiment: MMP-1-induced platelet aggregation; assay type: cell-based; conditions: 1 μM RWJ-56110
Experimental: In FIG. 4D, the induction of platelet aggregation by MMP-1 was determined. Gel-filtered platelets were challenged with MMP-1 in the presence or absence (0.2% DMSO vehicle) of the PAR1 inhibitor 1 μM RWJ-56110.

platelets [4] = experiment: Collagen-dependent aggregation of gel-filtered human platelets (light transmittance); assay type: cell-based; conditions: 5 μg/ml collagen; 1,10-PA 100 μM, MMP-200 200 nM, FN-439 3 μM, RWJ-56110 1 μM, PAR1 Ab 75 μg/ml, pepducins 3 μM, PPACK 200 μM, hirudin 1 U/ml
Experimental: Platelet pellets and their supernatants were prepared as follows. […] following established informed consent procedures. […] Alternatively, whole blood was obtained from Hartley Sprague guinea pigs (drawn from the vena cava) into 3% citrate plus 10 U/ml heparin. Washed platelets from the guinea pigs were prepared in PIPES buffer. Platelet aggregation was measured with a Chronolog 560VS/490-2D aggregometer using modified PIPES buffer as a blank. Samples were incubated for 5 min in the presence of inhibitors and 1.8 mM CaCl2 prior to addition of agonist. All reactions were in final volumes of 250 μl at 37° C. while stirring at 900 rpm.
The effect of pharmacologic blockage of metalloproteases or PAR1 on collagen-dependent platelet aggregation was then tested (see FIG. 5). Gel-filtered platelets from healthy individuals (supplemented with 0.3 mg/ml fibrinogen) were challenged with 5 μg/ml collagen in the presence or absence (0.2% DMSO vehicle) of the indicated inhibitors and allowed to stir at 900 rpm in an aggregometer cuvette (250 μL) at 37° C.
In FIG. 5A, platelet aggregation was monitored by light transmittance.

platelets [5] = experiment: Clot retraction assay in human platelet-rich plasma, collagen initiated; assay type: cell-based; conditions: 2.5-5 μg/ml collagen (titration 1-20 μg/ml); FN-439 5 μM, RWJ-56110 1 μM, MMP9/13 Inh 10 nM; 90 or 240 min
Experimental: Platelet rich plasma (PRP) was isolated from human whole blood anti-coagulated with 4% sodium citrate. Clot retraction assays were done in 1 ml volumes containing 800 μl PBS and 200 μl PRP plus 10 μl red blood cells to enhance contrast. Samples were pretreated with FN-439 (5 μM), MMP9/13 Inh (10 nM) or RWJ-56110 (1 μM) for 15 min and clot formation was initiated with 1-20 μg/ml type I fibrillar collagen. Samples were incubated at 37° C. for 90 or 240 min and then photographed with a digital camera. Each photograph in FIG. 6I is representative of three independent experiments.

PAR1 [6] = target: T1, PAR1; experiment: MMP-1-induced PAR1-dependent calcium flux in platelets; assay type: cell-based; conditions: RWJ-56110
Experimental: In FIG. 4C, the induction of PAR1-dependent calcium fluxes by MMP-1 was measured. Calcium flux measurements of gel filtered platelets following challenge with MMP-1 in the presence or absence of RWJ-56110 were performed at 25° C. with emission recorded at 510 nm and dual excitation at 340 and 380 nm as described (Kuliopulos. 1999).

MAPKAP-K2 = experiment: Collagen activation of phospho-MAPKAP-K2 in platelets (data not shown); assay type: cell-based, human
platelets [7] = experiment: Platelet thrombus formation on collagen surface under arterial flow, heparin-anticoagulated whole blood; assay type: cell-based, human; conditions: heparin 10 U/mL; shear rate 1,000 s-1; FN-439 3 μM, RWJ-56110 1 μM, pepducins 3 μM, aspirin 1 mM
Experimental: Following incubation with inhibitors, the blood was perfused over a glass slide coated with fibrillar collagen type I.
A flow chamber (Glycotech) with Type-I fibrillar collagen-coated glass slides was mounted on the stage of an IMT-2 inverted microscope (Olympus) equipped with Retiga 1300 digital camera (QImaging) and 40× objective. One of the flow chamber inlets was connected to a syringe pump (Harvard Apparatus) calibrated to create a shear rate of 1,000^s-1. The whole blood pretreated with the various pharmacologic inhibitors was then perfused over the collagen-coated glass slide. After 2-15 min of perfusion, blood was removed from the flow chamber by gentle displacement with PIPES buffer and images of 8-10 fields were acquired using OpenLab software (Improvision). Acquired images were further analyzed using NIH Image 1.63 software. Images were first sharpened and the edges of separate platelets and platelet aggregates were determined. Following the adjustment of threshold, images were converted into the binary format, and the particle analysis function was activated to highlight the regions covered by platelets with the sensitivity set to one single adherent thrombocyte. For the conversion of pixels into square micrometers, a calibration curve was built using 2.5, 6, 20, 25, and 45 μm polystyrene beads (Polyscience) using acquisition conditions identical to the experimental. The mean area of formed thrombus was determined at 7 min. Area measurements in FIG. 6B represent the mean±s.e. of three separate experiments from five different blood donors.

PAR1 [8] = target: T1, PAR1; experiment: PAR1-dependent RhoA activation (Rho-GTP) in platelets by tethered-ligand peptides; assay type: cell-based; conditions: 1 μM RWJ-56110
Experimental: Gel-filtered human platelets, supplemented with 0.3 mg/mL fibrinogen, were treated with 0.2% DMSO vehicle, or 30 μM SFLLRN (TRAP), PR-TRAP or reversed peptide (RP-TRAP), for 5 min at 37° C. in presence or absence of 1 μM RWJ-56110 as indicated. Platelets were lysed and Rho-GTP and total Rho was determined by Western analysis as described in the Experimental Procedures. Western bands were quantified by densitometry and results expressed relative to fold-increase from basal.

p38 MAPK = experiment: Collagen-induced phospho-p38 MAPK in platelets (western blot); assay type: cell-based, human; conditions: 5 or 20 μg/ml collagen or 10 nM MMP-1; ARC 0.5 μM, aspirin 1 mM
Experimental: The effect of pharmacologic blockage of metalloproteases or PAR1 on collagen-dependent platelet aggregation was then tested (see FIG. 5). […] Platelets were pre-incubated for 5 min with the thrombin inhibitors PPACK (200 μM) or hirudin (1 U/ml), the Zn-chelator 1,10-phenanthroline (1,10-PA; 100 μM), the broad spectrum metalloprotease inhibitor MMP-200 (200 nM), the MMP-1 inhibitor FN-439 (3 μM), the PAR1 ligand binding site inhibitor RWJ-56110 (1 μM), the PAR1 blocking antibody (75 μg/ml), the PAR1 pepducin lipopeptides P1pal-12 (3 μM) or P1pal-7 (3 μM), the PAR4 pepducin lipopeptide P4pal-10 (3 μM), MMP-8 inhibitor (25 nM) or MMP9/13 inhibitor (10 nM).
In FIG. 5B, platelets were treated as in FIG. 5A and then lysed with Laemmli sample buffer 5 min after addition of collagen, p38 MAPK activity was then assessed by western blot with a p38 MAPK phospho-Ab and total p38 loading was determined using a p38 MAPK antibody.

PAR1 [9] = experiment: Release of PAR1 N-terminal cleavage peptide from gel-filtered platelets (dot blot, IIaR-A antibody); assay type: cell-based, human; conditions: 5 μg/ml collagen, 10 min, 37° C.; Ab 20 μg/ml; ARC 0.5 μM; ASA 1 mM
Source text: To further understand how collagen is able to activate significant amounts of endogenous MMP-1 collagenase activity on the surface of platelets, experiments were devised to determine if PAR-1 is cleaved in either an autocrine or paracrine manner following exposure to collagen. Using a monoclonal antibody raised against the amino-terminal thrombin-cleavage peptide region of PAR1, residues 32-46 (Loew et al., 2000), the relative abilities of thrombin, MMP-1 and collagen to cause cleavage of platelet PAR1 was assessed. Gel filtered platelets were treated for 10 min with thrombin (3 nM), MMP-1 (3 nM), collagen (5 μg/ml), in the presence or absence (PBS buffer) of 0.00013 U hirudin or 5 μM FN-439 at 37° C. Supernatants were concentrated 20-fold and applied to nitrocellulose membranes, then probed with the IIaR-A monoclonal antibody. The PAR1 N-terminal thrombin deavage peptide (A26-R41) and PAR1 flexible linker peptide (N-acetyl-T67-L84 -C) (Kuliopulos et al., 1999) served as positive and negative controls (100 ng), respectively.
These platelets were then stimulated with collagen (5 μg/ml) for 10 min. at 37° C. Supernatants were concentrated 20-fold and applied to nitrocellulose membranes, then probed with the IIaR-A monoclonal antibody. […] FN-439, or an MMP1-blocking antibody (20 μg/ml) but not by thrombin inhibitor, hirudin (see FIG. 1E, FIG. 1G).

Rho-GTP = experiment: Collagen-induced Rho-GTP activity in platelets (western blot); assay type: cell-based, human; conditions: 5 or 20 μg/ml collagen or 10 nM MMP-1; ARC 0.5 μM, aspirin 1 mM
Experimental: In FIG. 5C, platelets were treated as in FIG. 5B and then Rho GTP activity was assessed by western blot.
Representative blots are shown at the bottom of FIGS. 5B-D. Data are the mean±s.d. of three experiments. P*<0.01, #<0.05.

platelets [10] = experiment: Platelet thrombus formation on collagen surface under arterial flow, CTI-anticoagulated whole blood; assay type: cell-based, human; conditions: CTI 30 μg/mL, hirudin 0.0013 U/mL, aspirin 1 mM
Experimental: Collagen-activated platelets also provide a pro-coagulant surface and produce tissue factor, which aids in the production of thrombin (Giesen at al., 1999; Mackman, 2004; Schwertz et al., 2006).
Whole blood was anti-coagulated with CTI (30 μg/mL) to block the contact pathway, otherwise the experiments were conducted identically as in FIG. 6A. Hirudin was used as indicated at 0.0013 UImL.

| block of PR-TRAP-induced platelet shape change (PAR1 [2]) | inhibition of MMP-1-elicited platelet shape change (PAR1 [2]) | inhibition of MMP-1-elicited platelet aggregation (PAR1 [3]) | inhibition of MMP-1-elicited calcium mobilization (PAR1 [6]) | block of signaling induced by PR-TRAP (PAR1 [8]) | SMILES | effect on mean occlusion time [1] | inhibition (loss) of collagen-induced platelet aggregation (platelets [4]) | inhibition of clot formation and retraction (platelets [5]) | block of collagen-activation of phospho-MAPKAP-K2 (MAPKAP-K2) | attenuation of growth rate and size of platelet aggregate strings (platelets [7]) | effect on activation of phospho-p38 MAPK (p38 MAPK) | block of collagen-induced release of PAR1 N-terminal peptide (PAR1 [9]) | effect on activation of Rho-GTP (Rho-GTP) | effect on size of platelet micro-thrombi on collagen surfaces (platelets [10]) |
| --- | --- | --- | --- | --- | --- | --- | --- | --- | --- | --- | --- | --- | --- | --- |
| completely blocked | inhibited | inhibited | inhibited | completely blocked | NCC[C@H](NC(=O)[C@H](Cc1ccc(F)c(F)c1)NC(=O)Nc1ccc2c(CN3CCCC3)cn(Cc3c(Cl)cccc3Cl)c2c1)C(=O)NCc1ccccc1 [RWJ-56110] | did not appreciably affect | 50% | nearly identical pattern of inhibition | blocked | ~75% |  |  |  |  |
|  |  |  |  |  | CC(=O)Oc1ccccc1C(=O)O [aspirin] |  |  |  |  | little or no effect | no effect | no effect | no effect | did not affect |
